The text below walks through data of patent publication US20150175655A1 (priority 2012, published 2015).

For series [1] the following is noted: rcm bond, Zhan 1B, DCE.
Series [2] relates to genotype 1a (H77) wild-type transient HCV replicon in Huh-7-derived cells. Kind of series: Transient-transfected HCV replicon EC50, genotype 1a wild type. In kind it is cell-based. Particulars: Hepatitis C virus; transient-transfected replicon genotype 1a wild type, 72 h; read-out: EC50 1A WT.
A further series addresses T1, NS3 genotype 1b protease (Hepatitis C virus genotype 1b, UniProt Q9WMX2, E1202G).
T1 construct: Purified NS3 protease domain (amino acids 1-181) of the genotype 1b and 3a virus were generated as above; K3 hexahistidine tag (N); rTEV protease cleavage site (N); made in house; host or cells: E. coli BL21AI, pET28 vector p28-N6H-Tev-NS3(181)1b
Kind of series: Ki determination, NS3 protease genotype 1b (fluorogenic depsipeptide substrate). In kind it is biochemical. From the text: The coding sequence of the genotype 1b (con-1 strain) HCV NS3 protease domain was PCR amplified from a plasmid encoding the I389luc-ubi-neo/NS3-3′/ET replicon (Reblikon, Mainz, Germany). The 5′-PCR primer was designed to encode an N-terminal K3 hexahistidine tag and to insert an in-frame recombinant Tobacco Etch virus (rTEV) protease cleavage site into the NS3 coding sequence. The resulting DNA fragment was cloned into the pET28 protein expression vector (Invitrogen, Carlsbad, Calif.) yielding the p28-N6H-Tev-NS3(181)1b.
BL21AI bacteria (Invitrogen, Carlsbad, Calif.) were transformed with genotype 1b or 3 NS3 expression vectors and used to inoculate a 20 L fermentation vessel (Sartorius BBI System Inc., Bethlehem, Pa.), containing 18 L of fresh 2YT medium supplemented with 50 μg/mL kanamycin. When cell densities reached an OD600 of 1, the temperature of the cultures was reduced from 37° C. to 28° C. and induction was immediately initiated by the addition of 30 μM ZnSO4, 14 mM L-arabinose and 1 mM Isopropyl β-D-thiogalactoside (IPTG) final concentrations. Cells were harvested by centrifugation four hours post-induction and were stored as frozen pellets at −80° C. prior to NS3 protein purification.
Cell pellets were thawed and resuspended at 10 mL/g cells in lysis buffer containing 50 mM tris pH 7.6, 300 mM NaCl, 0.1% 3-[(3-cholamidopropyl)dimethylammonio]-1-propanesulfonate (CHAPS), 5% glycerol, and 2 mM β-mercaptoethanol. Cell suspensions were then sonicated, filtered through cheesecloth, and passed three times through a microfluidizer at 18,000 pounds/in^2. The resulting lysates were centrifuged at 15500 rpm for 45 minutes and supernatants were loaded onto a HisTrap HP column (GE Lifesciences) pre-equilibrated with five volumes of Ni buffer A (50 mM tris pH 7.6, 300 mM NaCl, 0.1% CHAPS, 5% glycerol, 2 mM β-mercaptoethanol, 50 mM imidazole-HCl). Proteins were eluted with a 0-100% gradient of Ni buffer A plus 500 mM imidazole-HCl and fractions were collected and pooled. The HisTrap pool was diluted 1:10 with SP-A buffer (50 mM tris pH 7.0, 10% glycerol, 2 mM dithiothreitol (DTT)) and loaded onto a HiTrap SP-HP column (GE Lifesciences) equilibrated with SP-A buffer. NS3 protease was eluted with a 0-100% SP-B buffer (SP-A buffer plus 1 M NaCl) gradient. Concentrated pools of NS3-containing SP fractions were aliquoted, snap frozen in liquid nitrogen and stored at −80° C.
Purified NS3 protease domain (amino acids 1-181) of the genotype 1b and 3a virus were generated as above.
Reactions were run at room temperature in buffer consisting of 50 mM HEPES, 40% glycerol, 0.05% Triton X-100, 10 mM DTT, and 10% DMSO. The final assay solutions contained 50 pM NS3 genotype 1b protease or 200 pM genotype 3a protease, 20 μM NS4A peptide, and 4 μM substrate (genotype 1 b) or 2 μM substrate (genotype 3a). Inhibitor concentrations varied from 100 nM to 5 pM in 3-fold dilutions, and no-inhibitor controls were included.
Compound dilutions were made in DMSO at 20× final concentration. Reaction mixtures were prepared in 96-well assay plates. A solution of enzyme and NS4A peptide in assay buffer (25 μL volume with both reagents at 4× final concentration) was mixed with 45 μL assay buffer and 5 μL of either inhibitor or DMSO, and pre-incubated at room temperature for 1 hour. The reaction was started by addition of 25 μL substrate solution at 4× final concentration. Plates were mixed vigorously for 5-10 seconds and reactions were allowed to proceed for 90 minutes. fluorescence was measured every 30 s between 90 and 120 minutes reaction time using a Tecan InfiniTe M1000 or PerkinElmer Envision multimode plate reader with an excitation wavelength of 340 nm and an emission wavelength of 490 nm.
To determine the K, rates were plotted as a function of inhibitor concentration, and the data were fit with equation 1 (Morrison, J. F., Biochimica et Biophysica Acta 1969, 185, 269-286) to calculate Ki^app using GraphPad Prism 5.

The test system of series [3] is genotype 1b transient HCV replicon, NS3/4a protease inhibitor resistant variant D168A, in Huh-7-derived cells. Kind of series: Transient-transfected HCV replicon EC50, genotype 1b D168A. In kind it is cell-based. Particulars: Hepatitis C virus, 72 h, read-out: EC50 1B D168A.
Series [4] concerns genotype 1b (Con1) wild-type transient HCV replicon in Huh-7-derived cells. Kind of series: Transient-transfected HCV replicon EC50, genotype 1b wild type. Format: cell-based. The note with it: Hepatitis C virus; transient-transfected replicon genotype 1b wild type, 72 h; read-out: EC50 1B WT.
The subject of series [5] is genotype 1a transient HCV replicon, NS3/4a protease inhibitor resistant variant R155K, in Huh-7-derived cells. In words: Transient-transfected HCV replicon EC50, genotype 1a R155K. In kind it is cell-based. Particulars: Hepatitis C virus, 72 h, read-out: EC50 1A R155K.
The target of another series is T2, NS3 genotype 3a protease (UniProt Q81258).
T2 construct: Purified NS3 protease domain (amino acids 1-181) of the genotype 1b and 3a virus were generated as above; fused on or other part: N-terminal hexahistidine tag and rTEV protease cleavage site (vector p28-N6H-Tev-NS3(181)3)
T2 sequence (Q81258 1033-1663): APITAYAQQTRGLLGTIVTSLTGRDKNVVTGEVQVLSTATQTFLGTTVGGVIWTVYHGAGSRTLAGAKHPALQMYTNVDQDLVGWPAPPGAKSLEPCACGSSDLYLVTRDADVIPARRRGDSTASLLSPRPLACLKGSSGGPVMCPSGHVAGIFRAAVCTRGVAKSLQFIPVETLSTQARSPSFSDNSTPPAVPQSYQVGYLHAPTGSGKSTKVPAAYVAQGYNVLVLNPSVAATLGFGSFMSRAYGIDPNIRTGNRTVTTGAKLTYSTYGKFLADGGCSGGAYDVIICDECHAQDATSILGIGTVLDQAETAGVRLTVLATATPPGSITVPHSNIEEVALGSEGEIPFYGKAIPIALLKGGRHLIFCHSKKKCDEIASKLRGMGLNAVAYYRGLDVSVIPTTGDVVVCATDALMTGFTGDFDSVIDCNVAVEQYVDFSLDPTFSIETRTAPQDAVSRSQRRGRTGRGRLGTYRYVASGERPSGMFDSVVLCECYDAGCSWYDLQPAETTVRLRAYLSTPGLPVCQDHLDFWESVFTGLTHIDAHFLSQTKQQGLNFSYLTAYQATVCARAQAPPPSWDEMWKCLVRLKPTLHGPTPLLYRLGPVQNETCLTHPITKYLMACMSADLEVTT
Kind of series: Ki determination, NS3 protease genotype 3a (fluorogenic depsipeptide substrate). Format: biochemical, hepatitis C virus. Particulars: 200 pM enzyme, 20 μM NS4A peptide, 2 μM substrate, read-out: Ki 3A. The method in brief: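 Refolded His-tagged NS3 protease domain (aa 1-181, genotype 3a) at 200 pM with 20 μM NS4A peptide was pre-incubated 1 h at RT with inhibitor (100 nM–5 pM, 3-fold), then 2 μM FRET depsipeptide substrate was added in HEPES/40% glycerol/10% DMSO buffer. Steady-state rates over 90-120 min (ex 340/em 490 nm) versus inhibitor concentration gave Ki.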

Where two headings read alike, the source gives them in different places.

Regarding `CC[C@@H]1[C@@H]2CN(C(=O)[C@H](C(C)(C)C)NC(=O)OC3(C(F)(F)F)CCCC3CCCC=Cc3nc4ccc(OC)cc4nc3O2)[C@@H]1C(=O)OC(C)(C)C` (stereo partly drawn), the ring closure, yield of all isomers in series [1] (from C=CCCCC1CCCC1(OC(=O)N[C@H](C(=O)N1C[C@H](Oc2nc3cc(OC)ccc3nc2C=C)[C@@H](CC)[C@H]1C(=O)OC(C)(C)C)C(C)(C)C)C(F)(F)F, 5.0 mM, 100.0 °C, 0.5 h) turned out to be 84.7%.
`CC[C@@H]1[C@@H]2CN(C(=O)[C@H](C(C)(C)C)NC(=O)O[C@@H]3[C@H]4CC[C@H](C4)[C@H]3CCCC=Cc3nc4ccc(OC)cc4nc3O2)[C@@H]1C(=O)OC(C)(C)C` registered a ring closure, yield of all isomers in series [1] (from C=CCCCC1C2CCC(C2)C1OC(=O)N[C@H](C(=O)N1C[C@H](Oc2nc3cc(OC)ccc3nc2C=C)[C@@H](CC)[C@H]1C(=O)OC(C)(C)C)C(C)(C)C, 4.0 mM, 100.0 °C, 0.75 h) of 45.2%.
As for `CC[C@@H]1[C@@H]2CN(C(=O)[C@H](C(C)(C)C)NC(=O)O[C@]3(C)CCC[C@H]3CCCC=Cc3nc4ccc(OC)cc4nc3O2)[C@@H]1C(=O)OC`, in series [1] (from C=CCCC[C@@H]1CCC[C@@]1(C)OC(=O)N[C@H](C(=O)N1C[C@H](Oc2nc3cc(OC)ccc3nc2C=C)[C@@H](CC)[C@H]1C(=O)OC)C(C)(C)C, 19.9 mM, 80.0 °C, […]), the ring closure, yield of all isomers is 77.2%.
In turn, `COc1ccc2nc3c(nc2c1)O[C@H]1CN(C(=O)[C@H](C(C)(C)C)NC(=O)O[C@@H]2C[C@@H]4C[C@@H]4[C@H]2CCCC=C3)[C@H](C(=O)OC(C)(C)C)[C@@H]1C` yielded a ring closure, yield of all isomers in series [1] (from C=CCCCC1C(OC(=O)N[C@H](C(=O)N2C[C@H](Oc3nc4cc(OC)ccc4nc3C=C)[C@@H](C)[C@H]2C(=O)OC(C)(C)C)C(C)(C)C)CC2CC21, 2.91 mM, 85.0 °C, 1.75 h) of 33.1%.
With `CC[C@@H]1[C@@H]2CN(C(=O)[C@H](C3CCCCC3)NC(=O)O[C@@H]3C[C@H]3CCCCCc3nc4ccc(OC)cc4nc3O2)[C@@H]1C(=O)N[C@]1(C(=O)NS(=O)(=O)C2(C)CC2)C[C@H]1C(F)F` [Example 16, (1aR,5S,8S,9S,10R,22aR)-5-cyclohexyl-N-[(1R,2R)-2-(difluoromethyl)-1-{[(1-methylcyclopropyl)sulfonyl]carbamoyl}cyclopropyl]-9-ethyl-14-methoxy-3,6-dioxo-1,1a,3,4,5,6,9,10,18,19,20,21,22,22a-tetradecahydro-8H-7,10-methanocyclopropa[18,19][1,10,3,6]dioxadiazacyclononadecino[11,12-b]quinoxaline-8-carboxamide], the EC50 is 9.4 nM in series [2], 61 nM in series [3], 5.8 nM in series [4] and 22 nM in series [5]. On NS3 genotype 1b protease, the affinity, expressed as Ki, was 0.09 nM.
`COc1ccc2nc3c(nc2c1)O[C@H]1CN(C(=O)[C@H](C(C)(C)C)NC(=O)O[C@@H]2C[C@H]2CCCCC3)[C@H](C(=O)N[C@]2(C(=O)NS(=O)(=O)C3(C)CC3)C[C@H]2C(F)F)[C@@H]1C` [Example 18, (1aR,5S,8S,9S,10R,22aR)-5-tert-butyl-N-[(1R,2R)-2-(difluoromethyl)-1-{[(1-methylcyclopropyl)sulfonyl]carbamoyl}cyclopropyl]-14-methoxy-9-methyl-3,6-dioxo-1,1a,3,4,5,6,9,10,18,19,20,21,22,22a-tetradecahydro-8H-7,10-methanocyclopropa[18,19][1,10,3,6]dioxadiazacyclononadecino[11,12-b]quinoxaline-8-carboxamide]: the results for the EC50 in series [2], in series [3] and in series [4] were 2.3 nM, 24 nM and 1.2 nM, respectively.
Compound `CCOc1ccc2nc3c(nc2c1)O[C@H]1CN(C(=O)[C@H](C(C)(C)C)NC(=O)O[C@@H]2C[C@H]2CCCCC3)[C@H](C(=O)N[C@]2(C(=O)NS(=O)(=O)C3(C)CC3)C[C@H]2C(F)F)[C@@H]1CC` [Example 69, (1aR,5S,8S,9S,10R,22aR)-5-tert-butyl-N-[(1R,2R)-2-(difluoromethyl)-1-{[(1-methylcyclopropyl)sulfonyl]carbamoyl}cyclopropyl]-14-ethoxy-9-ethyl-3,6-dioxo-1,1a,3,4,5,6,9,10,18,19,20,21,22,22a-tetradecahydro-8H-7,10-methanocyclopropa[18,19][1,10,3,6]dioxadiazacyclononadecino[11,12-b]quinoxaline-8-carboxamide] yielded a Ki at NS3 genotype 1b protease of 0.07 nM.
Regarding `CC[C@@H]1[C@@H]2CN(C(=O)[C@H](C(C)(C)C)NC(=O)O[C@@H]3C[C@H]3CC/C=C/C(F)(F)c3nc4ccc(C#N)cc4nc3O2)[C@@H]1C(=O)N[C@]1(C(=O)NS(=O)(=O)C2(C)CC2)C[C@H]1C(F)F` [Example 84, (1aR,5S,8S,9S,10R,19E,22aR)-5-tert-butyl-14-cyano-N-[(1R,2R)-2-(difluoromethyl)-1-{[(1-methylcyclopropyl)sulfonyl]carbamoyl}cyclopropyl]-9-ethyl-18,18-difluoro-3,6-dioxo-1,1a,3,4,5,6,9,10,18,21,22,22a-dodecahydro-8H-7,10-methanocyclopropa[18,19][1,10,3,6]dioxadiazacyclononadecino[11,12-b]quinoxaline-8-carboxamide], the Ki at NS3 genotype 1b protease was found to be 0.04 nM; at NS3 genotype 3a protease, 0.08 nM.
